Results: ChEMBL document CHEMBL3576796, “A Broad Anti-influenza Hybrid Small Molecule That Potently Disrupts the Interaction of Polymerase Acidic Protein-Basic Protein 1 (PA-PB1) Subunits” (J Med Chem, 2015)
Converted amounts (≈) assume the structure as drawn. The source made the active and inactive calls. The calls are words filed in the database; no cut-off is given here.

Columns and labels:
Liver microsome = assay: Metabolic stability in human liver microsomes assessed as cytochrome-mediated metabolism after 30 mins by HPLC-MS/MS analysis; format: ADME; conditions: 0.5 h
Influenza A virus [1] = format: functional, organism-based; conditions: A/Puerto Rico/8/1934(H1N1), MDCK, 48 h
[2] = Cytotoxicity against human HEK293T cells assessed as decrease in cell viability by MTT assay; format: cell-based, HEK-293T
[3] = Cytotoxicity against MDCK cells assessed as decrease in cell viability by MTT assay; format: cell-based, Canis lupus familiaris; conditions: dog
[4] = target: PA/PB1 (Influenza A virus (A/Puerto Rico/8/1934(H1N1)), UniProt P03431+P03433)
[5] = Equilibrium solubility of the compound in phosphate buffer at pH 7.4 after 1 hr; format: physicochemical
[6] = Permeability of the compound assessed as passive diffusion from donor compartment to acceptor compartment after 18 hrs by PAMPA assay; format: physicochemical; conditions: read-out: Peff
[7] = Permeability of the compound assessed as membrane drug retention after 18 hrs by PAMPA assay; format: physicochemical; parameters: concentration or dose not given beside the values
Influenza A virus [8] = format: functional, organism-based; conditions: A/Puerto Rico/8/1934(H1N1), MDCK, 48 h; remark: listed apart in the source
[9] = Antiviral activity against Influenza A virus A/Solomon Island/3/06 (H1N1) assessed as reduction in plaque formation after 48 hrs by plaque reduction assay; format: functional, Influenza A virus (A/Solomon Islands/3/2006(H1N1))
[10] = Antiviral activity against Influenza A virus A/Wisconsin/67/05 (H3N2) assessed as reduction in plaque formation after 48 hrs by plaque reduction assay; format: functional, Influenza A virus (A/Wisconsin/67/2005(H3N2))
Influenza B virus [11] = assay: Antiviral activity against Influenza B virus B/Lee/40 assessed as reduction in plaque formation after 48 hrs by plaque reduction assay; format: functional, organism-based; conditions: B/Lee/1940, 48 h
Influenza B virus [12] = assay: Antiviral activity against Influenza B virus B/Malaysia/2506/04 assessed as reduction in plaque formation after 48 hrs by plaque reduction assay; format: functional; conditions: B/Malaysia/2506/2004, 48 h
Influenza B virus [13] = assay: Antiviral activity against Influenza B virus B/Bangladesh/333/07 assessed as reduction in plaque formation after 48 hrs by plaque reduction assay; format: functional, organism-based; conditions: B/Bangladesh/333/07, 48 h
Influenza A virus [14] = format: functional, organism-based; conditions: A/Puerto Rico/8/1934(H1N1), HEK-293T, 50 uM
Influenza A virus [15] = format: functional, organism-based; conditions: A/Puerto Rico/8/1934(H1N1), HEK-293T, 50 uM; remark: listed apart in the source
Influenza A virus [16] = format: functional, organism-based; conditions: A/Puerto Rico/8/1934(H1N1), HEK-293T, 50 uM; remark: listed apart in the source
Influenza A virus [17] = format: functional, organism-based; conditions: A/Puerto Rico/8/1934(H1N1), HEK-293T, 50 uM; remark: listed apart in the source

SMILES | Drug metabolism (Liver microsome) | EC50 (Influenza A virus [1]) [µM] | CC50 [2] [µM] | CC50 [3] [µM] | IC50 [4] [µM] | other results
CC1=CC(c2ccccc2)n2nc(NC(=O)c3ccc(F)cc3)nc2N1 (stereo not given) | metabolite_notdetected | > 100 | 190 | > 250 | 138 | –
Cc1cc(-c2ccccc2)nc2nc(NC(=O)c3ccccc3)nn12 | metabolite_notdetected | 25 | 196 | > 250 | 26 | solubility thermodynamic at 1 h [5]: 13 µg/mL (≈ 39.5 µM); Papp at 18 h [6]: 5.49 ×10⁻⁶ cm/s; Activity [7]: 2%; EC50 (Influenza A virus [8]): 25 µM; EC50 [9]: 27 µM; EC50 [10]: 24 µM; EC50 (Influenza B virus [11]): 25 µM; EC50 (Influenza B virus [12]): 36 µM; EC50 (Influenza B virus [13]): 34 µM
CSCC[C@H](N)C(=O)N[C@@H](CC(=O)O)C(=O)N[C@H](C(=O)N[C@@H](CC(N)=O)C(=O)N1CCC[C@H]1C(=O)N[C@H](C(=O)N[C@@H](CC(C)C)C(=O)N[C@@H](CC(C)C)C(=O)N[C@@H](Cc1ccccc1)C(=O)N[C@@H](CC(C)C)C(=O)N[C@@H](CCCCN)C(=O)N[C@H](C(=O)N1CCC[C@H]1C(=O)N[C@@H](C)C(=O)N[C@@H](CCC(N)=O)C(=O)O)C(C)C)[C@@H](C)O)C(C)C | – | – | > 100 | – | – | –
Nc1ccc(O)c2c1C(=O)c1c(N)ccc(O)c1C2=O | – | 14.5 | > 250 | – | 20.3 | –
N#CC(c1ccc(Cl)cc1)c1c(Cl)cc(-n2ncc(=O)[nH]c2=O)cc1Cl (stereo not given) [DICLAZURIL] | – | 31 | – | – | – | –
CC1=CC(c2ccccc2)n2nc(NC(=O)c3ccc(Oc4ccccc4)cc3)nc2N1 (stereo not given) | metabolite_notdetected | 59 | 73 | > 180 | 156 | –
CC1=CC(c2ccccc2)n2nc(NC(=O)c3ccccc3)nc2N1 (stereo not given) | metabolite_notdetected | 100 | > 250 | > 250 | 100 | –
Cc1cc(-c2ccccc2)nc2nc(C(=O)Nc3ccccc3)nn12 | metabolite_notdetected | 40 | > 250 | > 250 | 128 | –
O=[N+]([O-])c1ccc(Oc2ccc(-n3cc(CO)nn3)cc2)c2nonc12 | – | 1 | 40 | – | 35 | –
CCOc1ccc(C(=O)Nc2nc3n(n2)C(c2ccccc2)C=C(C)N3)cc1 (stereo not given) | metabolite_notdetected | 100 | 237 | > 250 | 139 | –
CCCCc1ccc(C(=O)Nc2nc3n(n2)C(c2ccccc2)C=C(C)N3)cc1 (stereo not given) | metabolite_notdetected | 100 | > 250 | > 250 | 48 | –
Cc1cc(-c2ccccc2)n2nc(C(=O)Nc3sc4c(c3C(N)=O)CCCCC4)nc2n1 | metabolite_notdetected | 21 | > 250 | > 250 | 1.1 | Activity (Influenza A virus [14]): inactive; solubility thermodynamic at 1 h [5]: 13 µg/mL (≈ 29.1 µM); Papp at 18 h [6]: 0.61 ×10⁻⁶ cm/s; Activity [7]: 45%; EC50 (Influenza A virus [8]): 21 µM; EC50 [9]: 23 µM; EC50 [10]: 7 µM; EC50 (Influenza B virus [11]): 24 µM; EC50 (Influenza B virus [12]): 17 µM; EC50 (Influenza B virus [13]): 11 µM; Activity (Influenza A virus [15]): Active; Activity (Influenza A virus [16]): Active; Activity (Influenza A virus [17]): Active
CC1=CC(c2ccccc2)n2nc(NC(=O)c3ccc(-c4ccccc4)cc3)nc2N1 (stereo not given) | metabolite_notdetected | 28 | 155 | > 193 | > 200 | –
COc1ccc(C(=O)Nc2nc3nc(-c4ccccc4)cc(C)n3n2)cc1 | metabolite_notdetected | > 100 | 109 | > 250 | 150 | –
CC1=CC(c2ccccc2)n2nc(NC(=O)c3ccc([N+](=O)[O-])cc3)nc2N1 (stereo not given) | metabolite_notdetected | > 100 | > 250 | > 250 | 75 | –
COc1ccc(C(=O)Nc2nc3n(n2)C(c2ccccc2)C=C(C)N3)cc1 (stereo not given) | metabolite_notdetected | > 100 | > 250 | > 240 | 153 | solubility thermodynamic at 1 h [5]: 13 µg/mL (≈ 36 µM); Papp at 18 h [6]: 3.52 ×10⁻⁶ cm/s; Activity [7]: 57%
CC1=CC(c2ccccc2)n2nc(NC(=O)CCc3ccccc3)nc2N1 (stereo not given) | metabolite_notdetected | > 100 | 223 | > 250 | 100 | –
NC(=O)c1c(NC(=O)c2nc3nc(-c4ccccc4)cc(C(F)(F)F)n3n2)sc2c1CCCC2 | – | – | > 250 | – | 7.5 | –
